We go through eleven molecules from patent publication US10844018B2, “Pyridoxine derivative for treatment of epilepsy” (AO “TATKHIMFARMPREPARATY”, priority 2017, dated 2020).

“Also recorded” adds a separate entry of the source. Where two headings read alike, the source gives them in different places. Bounds are passed on as bounds.

For data set [1], the system named is mice. The following applies: cited from earlier work.
In data set [2] the test system is mice. The following applies: intraperitoneal administration; cited from earlier work.
For data set [3], the system named is penicillin rat epilepsy model (high-amplitude electric discharges, HAED). Kind of data set: Penicillin model of epilepsy: effect on the electrical activity of the brain. The format is in vivo. The protocol:
Experiments were carried out on male Wistar rats with a body weight of 180-250 g. Under isoflurane anesthesia (1.5%), surgical preparation for the experiment is performed. Urethane ([…]) is used for anesthesia during the experiment. Next, the animal is fixed in a stereotactic installation. 2×2 mm holes are drilled in the skulls of animals over symmetrical areas of the sensorimotor cortex of the brain and a 16-channel silicon-based probe (Neuronexus) is installed with a step of 100 μm between the recording electrodes to divert electrical activity from these areas. A silver chloride electrode, which serves as a combined ground electrode and a reference electrode, is introduced into the cerebellum or the visual cortex to a depth of 2-3 mm. To create a focus of epileptic activity in parallel to the somatosensory zones, 2×2 mm holes are drilled in the area of the visual cortex, into which 10 μl of a solution of sodium salt of benzylpenicillin are applied at a concentration of 40,000 IU/ml. […] The amplitude-frequency characteristics of epileptiform activity are evaluated. […] For statistical processing of experimental data, statistical programs Origin 8.5 and IBM SPSS Statistics are used. The significance of differences between populations is evaluated by the Mann-Whitney U-test. […] Their presence, frequency and amplitude are characteristic indicators of brain epileptic activity.

The test system of data set [4] is corazol rat epilepsy model (convulsions caused by corazol). Kind of data set: Corazol model of epilepsy: development of seizures. Type of data set: in vivo. The following applies: rats. The procedure:
Experiments were carried out on male Wistar rats with a body weight of 180-250 g.
Corazol at a dose of 80 mg/kg is administered subcutaneously in the cervical area of the back.
The intensity of the development of a convulsive seizure was studied on a 6-point scale: • 0—lack of convulsive activity; • 1—hyperkinesia; • 2—trembling, twitching, excessive grooming, stereotypical movements; • 3—clonic convulsions of the front legs with lifting on the hind legs; • 4—pronounced tonic-clonic convulsions, the fall of the animal to the side, the presence of a phase of tonic extensia; • 5—repeated tonic-clonic convulsions, loss of posture; • 6—complete tonic attack with apnea, death of the animal.
To study the effect of the claimed compound 1 on the development of convulsions caused by corazol, compound 1 is dissolved in physiological saline and administered as follows: • at doses of 25 mg/kg, 100 mg/kg intraperitoneally (ip) 30 minutes before the induction of convulsions with corazol; • at doses of 100 mg/kg, 200 mg/kg, 250 mg/kg intragastrically 1 hour before the induction of convulsions with corazol.
The development of convulsive disorder is assessed by the following indicators: • time before the onset of seizures (min); • duration of seizures (sec.); • intensity of seizures on a 6-point scale; • number of animals with repeated convulsions; • number of dead animals in the group.
For statistical processing of experimental data, statistical programs Origin 8.5 and IBM SPSS Statistics are used.
The significance of differences between populations is evaluated by the Mann-Whitney U-test.

The nature of data set [5]: Acute toxicity in mice with oral administration (compound 1). The conditions noted are these: female, CD-1 (ICR), mouse, in vivo, 5000 mg/kg, printed 'in rats', study in CD-1 mice. The procedure: The study was performed on mice of the CD-1 (ICR) line (6-8 weeks, weight not less than 18 g, females). Two-fold intragastric (oral) administration of compound 1 in a volume of not more than 0.5 ml/30 g of body weight of the mouse using a gastric tube was used.
The introduction was carried out to animals deprived of food (for a period of not less than 8 hours) with free access to water. The volume of administration was calculated individually for each animal, based on the body mass recorded immediately before the introduction of the substance. Access to water and feed was renewed one hour after administration.
To prepare a dose of 5000 mg/kg for administration to mice, a portion of 1.5 g of compound 1 in a polystyrene boat on a Vibra scale (Shinko Denshi, Japan) was weighed, transferred to a volumetric flask of accuracy class A per 10 ml of volume, dissolved in distilled water and adjusted to the mark. Due to the insufficient solubility of compound 1, another 10 ml of distilled water is added to the resulting volume of the solution.
(§1) Animals were clinically examined individually after administration for 30 minutes, then at least once per hour for 4 hours, then daily once a day for 14 days. Body mass was recorded immediately before the administration of the preparation to calculate the volume of administration, then once every two days.

Data set [6] in a line: Acute toxicity in mice with intraperitoneal administration (compound 1). The conditions noted are these: both sexes, CD-1 (ICR), mouse, in vivo, ip, printed 'in rats', study in CD-1 mice. The procedure:
The study was performed on mice of the CD-1 (ICR) line (6-8 weeks, weight not less than 18 g) of both sexes. A single intraperitoneal injection of compound 1 was used at doses of 1000 mg/kg and 2000 mg/kg in a volume of 1 ml per 40 g of mouse body mass using an insulin syringe. The volume of administration was calculated individually for each animal, based on the body mass recorded immediately before the introduction of the substance.
To prepare a dose of 2000 mg/kg for administration to mice, a portion of 800 mg of compound 1 in a polystyrene boat on a Vibra scale (Shinko Denshi, Japan) was weighed, transferred to a volumetric flask of accuracy class A per 10 ml of volume, dissolved in physiological saline and adjusted to the mark. The solution was filtered with 0.22 μm syringe nozzles (Jet Biofil). […]
as §1

The test system of data set [7] is mice. The conditions noted are these: intravenous injection; cited from earlier work.
In data set [8] the test system is rats. The conditions noted are these: intravenous injection; cited from earlier work.
The subject of data set [9] is rats. The conditions noted are these: oral administration; cited from earlier work.

What is called LD50 is the dose at which mortality reaches 50%. Turning to `NC(=O)N1c2ccccc2C=Cc2ccccc21` [carbamazepine], the LD50 in data set [1] (mice, oral administration) was 529 mg/kg; in data set [2], 114 mg/kg.
With `Cc1nc(CS(=O)(=O)O)c(CO)c(CO)c1O` [compound 1, (5-hydroxy-3,4-bis (hydroxymethyl)-6-methylpyridin-2-yl) methanesulfonic acid], in [3] (compound 1 25-100 mg/kg against sodium valproate 600 mg/kg, ip, penicillin model), the “antiepileptic effect compared with sodium valproate” value was 6-24 times. In [3] (compound 1 at 25, 50, 100 mg/kg ip, given 30 min after penicillin, 60 minutes after administration, rats), the “suppression of HAED (epileptic electrical activity of the brain)” value is recorded as “completely suppressing HAED; also recorded: completely suppresses the epileptic electrical activity of the brain”. Moreover, the “amplitude and frequency of HAED” value in data set [3] (compound 1 at 25, 50, 100 mg/kg ip, rats, penicillin model) was “decrease in the amplitude and frequency of HAED”. In addition, the “prevention / reduction of development of a seizure” value in data set [4] (250 mg/kg oral administration, corazol model) is “best results in reducing the development of a seizure; also recorded: complete prevention of seizures in some cases”. In addition, the “intensity and duration of seizures” value in [4] (25 and 100 mg/kg intraperitoneally and 100 and 200 mg/kg orally, corazol model) is “decrease in the intensity and duration of seizures”. Besides, the “effect on development of a seizure relative to 250 mg/kg oral” value in data set [4] (100 and 200 mg/kg oral, corazol model) was “slightly less pronounced”. In [4] (all dosages, corazol model), the deaths entry is listed as “completely prevents deaths” and the “likelihood of recurrence of seizures” value was “greatly reduces the likelihood of recurrence of seizures”. In data set [4] (corazol 80 mg/kg sc, oral and intravenous (so in the source) ways of administration, all doses), the “duration and intensity of seizures” value was “dose-dependent decrease in the duration and intensity of seizures”. Further, the LD50 at 14 days in data set [5] was above 5000 mg/kg. The molecule also showed an LD50 at 14 days in [6] above 2000 mg/kg.
With `CCC1(C)CC(=O)NC1=O` (stereo not drawn) [ethosuximide], in [1] (mice, oral administration), the LD50 is 1530 mg/kg.
As to `NCC1(CC(=O)O)CCCCC1` [gabapentinum], the LD50 in [7] is 1000 to 2000 mg/kg; in [8], above 300 mg/kg; in [1] (mice, oral administration) it was above 5000 mg/kg; in data set [9], above 5000 mg/kg.
For the molecule `Nc1nnc(-c2cccc(Cl)c2Cl)c(N)n1` [lamotrigine], the LD50 in [1] (mouse, in vivo, po) is given as 269 mg/kg.
Consider `CC[C@@H](C(N)=O)N1CCCC1=O` [levetiracetam], for which the LD50 in [1] (mice, oral administration) is above 5000 mg/kg.
Consider `CCC1(c2ccccc2)C(=O)NC(=O)NC1=O` [phenobarbital], for which the LD50 in data set [9] is recorded as 163 mg/kg.
As for `O=C1N=C([O-])NC1(c1ccccc1)c1ccccc1.[Na+]` [sodium phenytoin], the LD50 in data set [1] (mice, oral administration) was 165 mg/kg.
In the case of `CCCC(CCC)C(=O)[O-].[Na+]` [sodium valproate], the LD50 in data set [1] (mice, oral administration) is given as 977 mg/kg; in data set [2], 470 mg/kg.
Take `CC1(C)O[C@@H]2[C@@H](CO[C@@]3(COS(N)(=O)=O)OC(C)(C)O[C@@H]23)O1` [topiramate]: the LD50 in [9] is recorded as 3570 mg/kg.
On to `NS(=O)(=O)Cc1noc2ccccc12` [zonisamide], for which the LD50 was 1829 mg/kg in data set [1] (mice, oral administration) and 699 mg/kg in data set [2].
